US20250339415A1, “DISULFIDE COMPOUNDS AS MEDICAMENTS” (CYTACOAT AB, priority 2021, published 2025)
≈ marks a conversion by molar mass, not a printed value. Read-outs that look alike come from different tables or passages of the source.

Experiments:
Assay type in all cases: cell-based
[1] = tested on: Staphylococcus aureus B5381; assay: Minimum inhibitory concentration (MIC), visible growth; conditions: for MIC: Staphylococcus aureus
Description: (§1) • 1. Using a sterile inoculating loop, transfer bacteria/Candida albicans from frozen stock culture and streak them on a fresh LA plate. • 2. Incubate the plate at 37° C. overnight (o/n) (18-24 h).
(§2) • 1. Prepare bacterial culture by adding 20 ml Mueller Hinton broth (*) to a 250-ml Erlenmeyer flask with sidearm. • 2. Using a sterile inoculating loop, pick approximately 10 colonies from the o/n bacterial culture and transfer bacteria to the flask. • 3. Incubate the E-flask with bacteria on a rotating shaker at 37° C. until OD590=0.40. This OD should equal an approximate bacterial count of 1×10^8 cfu/ml (**) • This is measured using a colorimeter (or spectrophotometer). Set reference and press R (=reference) first, then measure the bacterial culture by pressing T (=test). • 4. At OD590 0.40, serially dilute the bacterial suspension 1:10 000 in Mueller Hinton broth to obtain a bacterial target concentration of 1×10^4 cfu/ml. Determine the initial inoculation by serially diluting 0.1 ml in 0.9 ml blanks of sterile PBS and plating 0.1 ml aliquots to LA plates, preferably. • 5. Different concentrations of the tested compound are prepared in 0.6-0.8 ml of the final dilution of bacterial suspension and placed in 2-ml test tubes. • 6. Incubate test tubes in an orbital shaker incubator at 37° C. for 24 h.
(§3) • 7. Analyze visible growth, i.e. “Foggy” or “Clear”. MIC is being defined as the interval between the highest “Foggy” and the lowest “Clear” concentration of the compound.
(§4) Different concentrations of PDEA (Example 1) in Mueller Hinton medium were prepared. Bacteria were inoculated to a concentration of 20 000 CFU/ml and incubated at 37° C. for 24 hours. Minimum inhibitory concentrations (MICs) were determined by analyzing visible growth, i.e., readouts were “Clear” and “Foggy”.
(§5) Different concentrations of the quaternary ammonium PDEA (Example 2) in Mueller Hinton medium were prepared. Bacteria were inoculated to a concentration of 20 000 CFU/ml and incubated at 37° C. for 24 hours. Minimum inhibitory concentrations (MICs) were determined by analyzing visible growth, i.e., readouts were “Clear” and “Foggy”.
(§6) Different concentrations of this compound in Mueller Hinton medium were prepared. Bacteria were inoculated to a concentration of 20 000 CFU/ml and incubated at 37° C. for 24 hours. Minimum inhibitory concentrations (MICs) were determined by analyzing visible growth, i.e., readouts were “Clear” and “Foggy”.
(§7) Different concentrations of this compound were prepared in Mueller Hinton broth. Bacteria were inoculated to a concentration of 20 000 CFU/ml and incubated at 37° C. for 24 hours. Minimum inhibitory concentrations (MICs) were determined by analyzing visible growth, i.e., readouts were “Clear” and “Foggy”.

[2] = tested on: Pseudomonas aeruginosa PA02; assay: as above; conditions: for MIC: Pseudomonas aeruginosa
Description: as §1, §2, §3, §4, §5, §6, §7

[3] = tested on: Enterococcus faecium #11 (KI, Clinical Isolate); assay: as above; conditions: for MIC: Enterococcus faecium
Description: as §1, §2, §3, §4, §5, §6, §7

[4] = tested on: Enterococcus faecalis #28 (KI, Clinical Isolate); assay: as above; conditions: for MIC: Enterococcus faecalis
Description: as §1, §2, §3, §4, §5, §6, §7

[5] = tested on: Staphylococcus epidermidis Se19 (Clinical Isolate, Jan Ingemar Falk); assay: as above; conditions: for MIC: Staphylococcus epidermidis
Description: as §1, §2, §3, §4, §5, §6, §7

[6] = tested on: Klebsiella pneumoniae AO15200; assay: as above; conditions: for MIC: Klebsiella pneumoniae
Description: as §1, §2, §3, §4, §5, §6, §7

Escherichia coli CFT073 = assay: as above; conditions: for MIC: Escherichia coli
Description: as §1, §2, §3, §4, §5, §6, §7

Candida albicans = assay: Minimum inhibitory concentration (MIC), visible growth, YPD broth; conditions: for MIC: Candida albicans
Description: as §1, §2, §3
(*) When testing Candida albicans, Yeast extract Peptone Dextrose (YPD) broth is being used.
(**) For Candida albicans it is equal to 1×10^7
Different concentrations of PDEA were also prepared in Yeast extract Peptone Dextrose (YPD) broth. Candida albicans were inoculated to a concentration of 20 000 CFU/ml and incubated at 37° C. for 24 hours. Readouts were “Clear” and “Foggy”.
Different concentrations of the quaternary ammonium PDEA (Example 2) were also prepared in Yeast extract Peptone Dextrose (YPD) broth. Candida albicans were inoculated to a concentration of 20 000 CFU/ml and incubated at 37° C. for 24 hours. Readouts were “Clear” and “Foggy”.
Different concentrations of the Para position-PDEA” is (S)-4-pyridylthio cysteamine were also prepared in Yeast extract Peptone Dextrose (YPD) broth. Candida albicans were inoculated to a concentration of 20 000 CFU/ml and incubated at 37° C. for 24 hours. Readouts were “Clear” and “Foggy”.
Different concentrations of “Carboxylic acid PDEA” is 3-(2-Pyridyldithio)propanoic acid (CAS: 68617-64-1) were also prepared in Yeast extract Peptone Dextrose (YPD) broth. Candida albicans were inoculated to a concentration of 20 000 CFU/ml and incubated at 37° C. for 24 hours. Readouts were “Clear” and “Foggy”.

[7] = Mueller Hinton, 20 000 CFU/ml, 37° C., 24 hours, read-out: MIC

`NCCSSc1ccncc1` [Example 3, (S)-4-pyridylthio cysteamine] was tested, and the visible growth readout ([1]; 0.01 mM) was “Foggy”, the visible growth readout ([1]; 0.05 mM) was “Foggy” and the visible growth readout ([1]; 0.1 mM) was “Foggy”. For the same compound, the visible growth readout ([1]; 0.2 mM) was “Foggy”, the visible growth readout ([1]; 0.4 mM) was “Clear” and the visible growth readout ([1]; 0.8 mM) was “Clear”. For the same compound, the visible growth readout ([1]; 1.6 mM) was “Clear”, the visible growth readout ([1]; 3.2 mM) was “Clear” and the MIC ([1]; B5381, Mueller Hinton, 20 000 CFU/ml, 37° C., 24 hours, read-out: MIC) was 200 to 400 µM (≈ 37.3 to 74.5 µg/mL). The visible growth readout ([2]; 0.01 mM) was “Foggy”, the visible growth readout ([2]; 0.05 mM) was “Foggy” and the visible growth readout ([2]; 0.1 mM) was “Foggy”. The visible growth readout ([2]; 0.2 mM) was “Foggy”, the visible growth readout ([2]; 0.4 mM) was “Foggy” and the visible growth readout ([2]; 0.8 mM) was “Clear”. For the same compound, the visible growth readout ([2]; 1.6 mM) was “Clear”, the visible growth readout ([2]; 3.2 mM) was “Clear” and the MIC ([2]; PA02, Mueller Hinton, 20 000 CFU/ml, 37° C., 24 hours, read-out: MIC) was 400 to 800 µM (≈ 74.5 to 149 µg/mL). The visible growth readout ([3]; 0.01 mM) was “Foggy”, the visible growth readout ([3]; 0.05 mM) was “Foggy” and the visible growth readout ([3]; 0.1 mM) was “Foggy”. For the same compound, the visible growth readout ([3]; 0.2 mM) was “Clear”, the visible growth readout ([3]; 0.4 mM) was “Clear” and the visible growth readout ([3]; 0.8 mM) was “Clear”. The visible growth readout ([3]; 1.6 mM) was “Clear”, the visible growth readout ([3]; 3.2 mM) was “Clear” and the MIC [3, 7] was 100 to 200 µM (≈ 18.6 to 37.3 µg/mL). The visible growth readout ([4]; 0.01 mM) was “Foggy”, the visible growth readout ([4]; 0.05 mM) was “Foggy” and the visible growth readout ([4]; 0.1 mM) was “Foggy”. For the same compound, the visible growth readout ([4]; 0.2 mM) was “Foggy”, the visible growth readout ([4]; 0.4 mM) was “Clear” and the visible growth readout ([4]; 0.8 mM) was “Clear”. For the same compound, the visible growth readout ([4]; 1.6 mM) was “Clear”, the visible growth readout ([4]; 3.2 mM) was “Clear” and the MIC [4, 7] was 200 to 400 µM (≈ 37.3 to 74.5 µg/mL). For the same compound, the visible growth readout ([5]; 0.01 mM) was “Foggy”, the visible growth readout ([5]; 0.05 mM) was “Foggy” and the visible growth readout ([5]; 0.1 mM) was “Foggy”. The visible growth readout ([5]; 0.2 mM) was “Clear”, the visible growth readout ([5]; 0.4 mM) was “Clear” and the visible growth readout ([5]; 0.8 mM) was “Clear”. For the same compound, the visible growth readout ([5]; 1.6 mM) was “Clear”, the visible growth readout ([5]; 3.2 mM) was “Clear” and the MIC [5, 7] was 100 to 200 µM (≈ 18.6 to 37.3 µg/mL). For the same compound, the visible growth readout ([6]; 0.01 mM) was “Foggy”, the visible growth readout ([6]; 0.05 mM) was “Foggy” and the visible growth readout ([6]; 0.1 mM) was “Foggy”. For the same compound, the visible growth readout ([6]; 0.2 mM) was “Foggy”, the visible growth readout ([6]; 0.4 mM) was “Clear” and the visible growth readout ([6]; 0.8 mM) was “Clear”. The visible growth readout ([6]; 1.6 mM) was “Clear”, the visible growth readout ([6]; 3.2 mM) was “Clear” and the MIC ([6]; AO15200, Mueller Hinton, 20 000 CFU/ml, 37° C., 24 hours, read-out: MIC) was 200 to 400 µM (≈ 37.3 to 74.5 µg/mL). For the same compound, the visible growth readout (Escherichia coli CFT073; 0.01 mM) was “Foggy”, the visible growth readout (Escherichia coli CFT073; 0.05 mM) was “Foggy” and the visible growth readout (Escherichia coli CFT073; 0.1 mM) was “Foggy”. The visible growth readout (Escherichia coli CFT073; 0.2 mM) was “Foggy”, the visible growth readout (Escherichia coli CFT073; 0.4 mM) was “Clear” and the visible growth readout (Escherichia coli CFT073; 0.8 mM) was “Clear”. The visible growth readout (Escherichia coli CFT073; 1.6 mM) was “Clear”, the visible growth readout (Escherichia coli CFT073; 3.2 mM) was “Clear” and the MIC (Escherichia coli CFT073; CFT073, Mueller Hinton, 20 000 CFU/ml, 37° C., 24 hours, read-out: MIC) was 200 to 400 µM (≈ 37.3 to 74.5 µg/mL). For the same compound, the visible growth readout (Candida albicans; 0.01 mM) was “Foggy”, the visible growth readout (Candida albicans; 0.05 mM) was “Foggy” and the visible growth readout (Candida albicans; 0.1 mM) was “Foggy”. For the same compound, the visible growth readout (Candida albicans; 0.2 mM) was “Foggy”, the visible growth readout (Candida albicans; 0.4 mM) was “Foggy” and the visible growth readout (Candida albicans; 0.8 mM) was “Foggy”. The visible growth readout (Candida albicans; 1.6 mM) was “Foggy”, the visible growth readout (Candida albicans; 3.2 mM) was “Clear” and the MIC (Candida albicans; YPD broth, 20 000 CFU/ml, 37° C., 24 hours, read-out: MIC) was 1600 to 3200 µM (≈ 298 to 596 µg/mL).

`C[N+](C)(C)CCSSc1ccccn1` [Example 2, 2-(2-Pyridyldisulanyl)ethan-(trimethylammonium) chloride] was tested, and the visible growth readout ([1]; 0.11 mM) was “Foggy”, the visible growth readout ([1]; 0.225 mM) was “Foggy” and the visible growth readout ([1]; 0.55 mM) was “Foggy”. The visible growth readout ([1]; 1.125 mM) was “Clear”, the MIC ([1]; B5381, 24 h) was 550 to 1120 µM and the visible growth readout ([2]; 0.11 mM) was “Foggy”. The visible growth readout ([2]; 0.225 mM) was “Foggy”, the visible growth readout ([2]; 0.55 mM) was “Foggy” and the visible growth readout ([2]; 1.125 mM) was “Clear”. For the same compound, the MIC ([2]; PA02, 24 h) was 550 to 1120 µM, the visible growth readout ([3]; 0.025 mM) was “Foggy” and the visible growth readout ([3]; 0.055 mM) was “Foggy”. For the same compound, the visible growth readout ([3]; 0.11 mM) was “Clear”, the visible growth readout ([3]; 0.225 mM) was “Clear” and the MIC ([3]; 24 h) was 55 to 110 µM. The visible growth readout ([4]; 0.11 mM) was “Foggy”, the visible growth readout ([4]; 0.225 mM) was “Clear” and the visible growth readout ([4]; 0.55 mM) was “Clear”. For the same compound, the visible growth readout ([4]; 1.125 mM) was “Clear”, the MIC ([4]; 24 h) was 110 to 225 µM and the visible growth readout ([5]; 0.025 mM) was “Foggy”. The visible growth readout ([5]; 0.055 mM) was “Foggy”, the visible growth readout ([5]; 0.11 mM) was “Clear” and the visible growth readout ([5]; 0.225 mM) was “Clear”. For the same compound, the MIC ([5]; 24 h) was 55 to 110 µM, the visible growth readout ([6]; 0.11 mM) was “Foggy” and the visible growth readout ([6]; 0.225 mM) was “Foggy”. The visible growth readout ([6]; 0.55 mM) was “Clear”, the visible growth readout ([6]; 1.125 mM) was “Clear” and the MIC ([6]; AO15200, 24 h) was 225 to 550 µM. The visible growth readout (Escherichia coli CFT073; 0.11 mM) was “Foggy”, the visible growth readout (Escherichia coli CFT073; 0.225 mM) was “Foggy” and the visible growth readout (Escherichia coli CFT073; 0.55 mM) was “Clear”. The visible growth readout (Escherichia coli CFT073; 1.125 mM) was “Clear”, the MIC (Escherichia coli CFT073; CFT073, 24 h) was 225 to 550 µM and the visible growth readout (Candida albicans; 0.11 mM) was “Foggy”. The visible growth readout (Candida albicans; 0.225 mM) was “Foggy”, the visible growth readout (Candida albicans; 0.55 mM) was “Clear” and the visible growth readout (Candida albicans; 1.1 mM) was “Clear”. For the same compound, the visible growth readout (Candida albicans; 2.2 mM) was “Clear”, the visible growth readout (Candida albicans; 4.4 mM) was “Clear” and the MIC (Candida albicans; 24 h) was 225 to 550 µM.
